Each structure is given as a SMILES string.

Assay [1] concerns MDA-MB-436. The assay can be described thus: Antiproliferative activity against human MDA-MB-436 cells assessed as inhibition of cell growth at 20 uM incubated for 48 hrs by MTT assay relative to control. The format is functional. (Tetrazolium dyes change colour on reduction, which living cells bring about.)
Assay [2] relates to HCC1937. Briefly: Antiproliferative activity against human HCC1937 cells assessed as inhibition of cell growth at 20 uM incubated for 48 hrs by MTT assay relative to control. The format is functional.
For assay [3], the system named is SUM149PT. The assay can be described thus: Antiproliferative activity against human SUM149PT cells assessed as inhibition of cell growth at 20 uM incubated for 48 hrs by MTT assay relative to control. The format is functional.
The subject of assay [4] is SUM149PT. Briefly: Antiproliferative activity against human SUM149PT cells assessed as inhibition of cell growth incubated for 48 hrs by MTT assay. The format is functional, cell-based.
The test system of assay [5] is CAPAN-1. Briefly: Antiproliferative activity against human CAPAN-1 cells assessed as inhibition of cell growth incubated for 48 hrs by MTT assay. Type of assay: functional, cell-based. The note with it: CAPAN-1, 48 h.
Assay [6] has as its system HCC1937. Briefly: Antiproliferative activity against human HCC1937 cells assessed as inhibition of cell growth incubated for 48 hrs by MTT assay. Type of assay: functional, cell-based. The following applies: HCC1937, 48 h.
The test system of assay [7] is CAPAN-1. Briefly: Antiproliferative activity against human CAPAN-1 cells assessed as inhibition of cell growth at 5 uM incubated for 48 hrs by MTT assay relative to control. Type of assay: functional.
Assay [8] has as its system CAPAN-1. Briefly: Antiproliferative activity against human CAPAN-1 cells assessed as inhibition of cell growth at 20 uM incubated for 48 hrs by MTT assay relative to control. The format is functional.
Assay [9] deals with HCC1937. The assay can be described thus: Antiproliferative activity against human HCC1937 cells assessed as inhibition of cell growth at 5 uM incubated for 48 hrs by MTT assay relative to control. Type of assay: functional.
The test system of assay [10] is SUM149PT. The assay can be described thus: Antiproliferative activity against human SUM149PT cells assessed as inhibition of cell growth at 5 uM incubated for 48 hrs by MTT assay relative to control. Type of assay: functional.
Assay [11] deals with SUM149PT. Briefly: Induction of apoptosis in human SUM149PT cells assessed as viable cells at 2 uM incubated for 48 hrs by Annexin V-FITC/PI staining based flow cytometry (reference value: 96.1 %). The format is functional. The note with it: read-out: Activity. In general terms: A flow cytometer gives signals particle by particle.
Assay [12] concerns SUM149PT. The assay can be described thus: Induction of cell cycle arrest in human SUM149PT cells assessed as accumulation of cells at G0/G1 phase at 2 uM incubated for 48 hrs by propidium iodide/RNase A staining based flow cytometry (reference value: 69.2 %). Type of assay: functional.
Assay [13] concerns SUM149PT. Briefly: Induction of apoptosis in human SUM149PT cells assessed as late apoptotic cells at 2 uM incubated for 24 hrs by Annexin V-FITC/PI staining based flow cytometry (reference value: 2.45 %). Type of assay: functional.
Assay [14] has as its system SUM149PT. Briefly: Induction of cell cycle arrest in human SUM149PT cells assessed as accumulation of cells at S phase at 2 uM incubated for 24 hrs by propidium iodide/RNase A staining based flow cytometry (reference value: 16.4 %). Type of assay: functional.
Assay [15] relates to SUM149PT. Briefly: Induction of apoptosis in human SUM149PT cells assessed as early apoptotic cells at 2 uM incubated for 48 hrs by Annexin V-FITC/PI staining based flow cytometry (reference value: 2.28 %). Type of assay: functional.
Assay [16] has as its system SUM149PT. The assay can be described thus: Induction of cell cycle arrest in human SUM149PT cells assessed as accumulation of cells at S phase at 2 uM incubated for 48 hrs by propidium iodide/RNase A staining based flow cytometry (reference value: 18.7 %). Type of assay: functional.
Assay [17] relates to SUM149PT. Briefly: Induction of cell cycle arrest in human SUM149PT cells assessed as accumulation of cells at G0/G1 phase at 2 uM incubated for 24 hrs by propidium iodide/RNase A staining based flow cytometry (reference value: 72.8 %). The format is functional.
Assay [18] has as its system SUM149PT. Briefly: Induction of apoptosis in human SUM149PT cells assessed as necrotic cells at 2 uM incubated for 24 hrs by Annexin V-FITC/PI staining based flow cytometry (reference value: 1.27 %). The format is functional.
The subject of assay [19] is SUM149PT. The assay can be described thus: Induction of apoptosis in human SUM149PT cells assessed as early apoptotic cells at 2 uM incubated for 24 hrs by Annexin V-FITC/PI staining based flow cytometry (reference value: 2.59 %). Type of assay: functional.
Assay [20] has as its system SUM149PT. Briefly: Induction of cell cycle arrest in human SUM149PT cells assessed as accumulation of cells at G2/M phase at 2 uM incubated for 24 hrs by propidium iodide/RNase A staining based flow cytometry (reference value: 5.54 %). The format is functional.
In assay [21] the test system is SUM149PT. Briefly: Induction of apoptosis in human SUM149PT cells assessed as necrotic cells at 2 uM incubated for 48 hrs by Annexin V-FITC/PI staining based flow cytometry (reference value: 0.51 %). The format is functional.
Assay [22] relates to SUM149PT. Briefly: Induction of apoptosis in human SUM149PT cells assessed as viable cells at 2 uM incubated for 24 hrs by Annexin V-FITC/PI staining based flow cytometry (reference value: 93.7 %). The note with it: read-out: Activity. Type of assay: functional.
Assay [23] concerns SUM149PT. The assay can be described thus: Induction of apoptosis in human SUM149PT cells assessed as late apoptotic cells at 2 uM incubated for 48 hrs by Annexin V-FITC/PI staining based flow cytometry (reference value: 1.13 %). Type of assay: functional.

For the molecule `COc1ccc(-c2cc3cccc(C(N)=O)c3oc2=O)cc1`, the inhibition (in general, the percentage by which the read-out fell short of the control) at 20 µM in [1] was less than 40%; in assay [2] it was more than 60%; in [3], more than 60%.
In the case of `COc1cc(OC)cc(-c2cc3cccc(C(N)=O)c3oc2=O)c1`, the inhibition at 20 µM is less than 40% in assay [1], more than 60% in assay [2] and more than 60% in [3].
For `COc1ccc(-c2cc3cc(F)cc(C(N)=O)c3oc2=O)cc1OC`, the results for the IC50 in assay [4], in [5] and in [6] were 4.09 µM, 8.6 µM and 3.67 µM, respectively. Also, the inhibition at 20 µM in assay [1] was less than 40%; in assay [2] it was more than 60%; in assay [3], more than 60%.
For `COc1ccc(-c2cc3cc(F)cc(C(N)=O)c3oc2=O)cc1O`, the inhibition at 20 µM in [1] was less than 40%; in assay [2], more than 60%; in assay [3], more than 60%.
On to `NC(=O)c1cccc2cc(-c3cccc(O)c3)c(=O)oc12`, for which the values for the inhibition at 20 µM in assay [1], in assay [2] and in assay [3] were less than 40%, more than 60% and more than 60%, respectively.
As to `NC(=O)c1cc(F)cc2cc(-c3ccc4c(c3)CCO4)c(=O)oc12`, the IC50 – broadly, the point on the concentration scale where inhibition reaches its midpoint – in assay [4] amounted to 5.11 µM; in [5], 21.1 µM; in assay [6], 3.71 µM. Also, the inhibition at 20 µM in [1] is less than 40%; in assay [2], more than 60%; in assay [3], more than 60%.
Take `COc1cc(-c2cc3cc(F)cc(C(N)=O)c3oc2=O)ccc1O`: the inhibition at 5 µM in assay [7] is more than 50%. The IC50 in assay [4] stood at 3.18 µM; in assay [5] it was 3.16 µM; in assay [6] it was 4.2 µM. The inhibition at 20 µM is less than 40% in [1], more than 60% in assay [2], more than 60% in assay [3] and more than 60% in [8].
On to `NC(=O)c1cc(F)cc2cc(-c3ccccc3)c(=O)oc12`, for which the inhibition at 20 µM was less than 40% in [1], more than 60% in [2] and more than 60% in [3].
Take `NC(=O)c1cccc2cc(-c3ccsc3)c(=O)oc12`: the inhibition at 20 µM in assay [1] is less than 40%; in assay [2], more than 60%; in assay [3] it was more than 60%.
Turning to `COc1ccc(-c2cc3cccc(C(N)=O)c3oc2=O)cc1OC`, the inhibition at 20 µM in [1] is less than 40%; in assay [2] it was more than 60%; in assay [3], more than 60%.
As for `COc1cc(OC)cc(-c2cc3cc(F)cc(C(N)=O)c3oc2=O)c1`, the inhibition at 20 µM in assay [1] was less than 40%; in assay [2] it was more than 60%; in assay [3], more than 60%.
Take `NC(=O)c1cccc2cc(-c3cccs3)c(=O)oc12`: the inhibition at 20 µM was less than 40% in assay [1], more than 60% in assay [2] and more than 60% in assay [3].
Regarding `NC(=O)c1cc(F)cc2cc(-c3ccc4c(c3)OCO4)c(=O)oc12`, the inhibition at 20 µM in assay [1] is less than 40%; in assay [2] it was more than 60%; in [3] it was more than 60%.
Regarding `NC(=O)c1cc(F)cc2cc(-c3cccc(O)c3)c(=O)oc12`, the inhibition at 20 µM in [1] is less than 40%; in [2], more than 60%; in assay [3], more than 60%.
With `COc1cccc(-c2cc3cccc(C(N)=O)c3oc2=O)c1`, the inhibition at 5 µM was more than 70% in assay [9] and more than 50% in assay [7]. In addition, the IC50 in assay [4] stood at 4.93 µM; in assay [5] it was 4.6 µM; in assay [6], 0.62 µM. Besides, the inhibition at 20 µM in assay [1] is less than 40%; in [2] it was more than 80%; in [3] it was more than 60%; in assay [8], more than 60%.
Take `NC(=O)c1cccc2cc(-c3ccccc3O)c(=O)oc12`: the inhibition at 20 µM in assay [1] is less than 40%; in assay [2], more than 60%; in assay [3], more than 60%.
As to `COc1ccc(-c2cc3cccc(C(N)=O)c3oc2=O)cc1O`, the IC50 in [4] was 4.82 µM; in assay [5], 15.3 µM; in [6], 10.6 µM. Also, the figures for the inhibition at 20 µM in assay [1], in assay [2] and in assay [3] were less than 40%, more than 60% and more than 60%, respectively.
With `NC(=O)c1cccc2cc(-c3ccccc3)c(=O)oc12`, the inhibition at 5 µM in assay [7] is more than 50%. Moreover, the inhibition at 20 µM in [1] was less than 40%; in assay [2], more than 60%; in assay [3], more than 60%; in [8], more than 60%.
With `NC(=O)c1cccc2cc(-c3ccc4c(c3)CCO4)c(=O)oc12`, the inhibition at 20 µM in assay [1] is less than 40%; in assay [2], more than 60%; in [3], more than 60%.
For `NC(=O)c1cc(F)cc2cc(-c3cccs3)c(=O)oc12`, the inhibition at 5 µM in assay [9] and in assay [10] was more than 70% throughout. Besides, the IC50 in [4] was 0.62 µM; in assay [5], 17.2 µM; in [6], 1.86 µM. Besides, the inhibition at 20 µM in [1] was less than 40%; in assay [2] it was more than 80%; in assay [3], more than 80%.
For the molecule `NC(=O)c1cc(F)cc2cc(-c3ccccc3O)c(=O)oc12`, in assay [9], the inhibition at 5 µM was more than 70%. Moreover, the IC50 came to 3.29 µM in assay [4], 11.9 µM in assay [5] and 2.94 µM in assay [6]. The inhibition at 20 µM in assay [1] is less than 40%; in assay [2], more than 80%; in [3], more than 60%.
`NC(=O)c1cccc2cn(-c3ccc([C@@H]4CCCNC4)cc3)nc12` [NIRAPARIB]: the viability at 2 µM was found to be 77.7% in assay [11] and 89.9% in [22]. Further, the Activity in assay [12] was 32%; in assay [13], 6.34%; in assay [14], 28.4%; in assay [15], 11.8%; in assay [16] it was 51.9%; in assay [17] it was 54.2%. The Activity is 1.93% in assay [18]; 1.85% in assay [19]; 16.2% in assay [20]; 3.34% in [21]; 7.18% in [23]. The values for the IC50 in [4] and in [5] were 7.05 µM and 10.4 µM, respectively.
Take `COc1ccc(-c2cc3cc(F)cc(C(N)=O)c3oc2=O)cc1`: the inhibition at 20 µM in assay [1] is less than 40%; in assay [2] it was more than 60%; in assay [3] it was more than 60%.
As for `NC(=O)c1cccc2cc(-c3ccc4c(c3)OCO4)c(=O)oc12`, the results for the inhibition at 20 µM in [1], in assay [2] and in assay [3] were less than 40%, more than 60% and more than 60%, respectively.
On to `NC(=O)c1cccc2cc(-c3ccc(O)cc3)c(=O)oc12`, for which the values for the IC50 in assay [4], in assay [5] and in assay [6] were 3.14 µM, 19.1 µM and 10.8 µM, respectively. For the same molecule, the values for the inhibition at 20 µM in assay [1], in assay [2] and in assay [3] were less than 40%, more than 60% and more than 60%, respectively.
Turning to `NC(=O)c1cc(F)cc2cc(-c3ccsc3)c(=O)oc12`, the results for the IC50 in [4], in [5] and in assay [6] were 11.6 µM, 20.6 µM and 1.9 µM, respectively. The inhibition at 20 µM in assay [1] is less than 40%; in assay [2], more than 60%; in [3], more than 60%.
Regarding `COc1cc(-c2cc3cccc(C(N)=O)c3oc2=O)ccc1O`, the inhibition at 20 µM was less than 40% in assay [1], more than 60% in assay [2] and more than 60% in [3].
For `NC(=O)c1cc(F)cc2cc(-c3ccc(O)cc3)c(=O)oc12`, the inhibition at 20 µM was less than 40% in assay [1], more than 60% in assay [2] and more than 60% in assay [3].

(Values after ChEMBL document CHEMBL6074623, “Carbamoylation at C-8 position of natural 3-arylcoumarin scaffold for the discovery of novel PARP-1 inhibitors with potent anticancer activity” (Eur J Med Chem, 2024).)
